In brackets after ≈: the same amount, converted by molar mass.
Assays:
Assay in all cases: ≥ marks a high value that may be exact or a test limit, other limits are often not marked, values filed in µg/mL are converted to µM
[1] = tested on: Staphylococcus aureus ATCC 33591
[2] = tested on: Escherichia coli ATCC 2592
[3] = tested on: Cryptococcus neoformans ATCC 32045
[4] = tested on: Candida albicans ATCC 10231
[5] = tested on: Pseudomonas aeruginosa ATCC 10145
Staphylococcus aureus = tested on: Staphylococcus aureus
Escherichia coli = tested on: Escherichia coli
Pseudomonas aeruginosa = tested on: Pseudomonas aeruginosa
Klebsiella pneumoniae = tested on: Klebsiella pneumoniae
Bacillus subtilis = tested on: Bacillus subtilis
Shigella dysenteriae = tested on: Shigella dysenteriae
[6] = tested on: Staphylococcus epidermidis
Proteus mirabilis = tested on: Proteus mirabilis
Micrococcus luteus = tested on: Micrococcus luteus
Salmonella typhimurium = tested on: Salmonella typhimurium
Escherichia coli JW0013 = tested on: Escherichia coli JW0013
[7] = tested on: Xanthomonas vesicatoria DSM 50861
[8] = tested on: Pseudomonas corrugata DSM 7228
[9] = tested on: Pseudomonas syringae pv. syringae DSM 10604
[10] = tested on: Clavibacter michiganensis subsp. michiganensis DSM 46294
[11] = tested on: Pseudomonas syringae pv. tomato DC3000
[12] = tested on: Pectobacterium carotovorum subsp. carotovorum DSM 30168
Escherichia coli BL21 = tested on: Escherichia coli BL21
[13] = tested on: Pseudomonas aeruginosa PAO1

An MIC [1] of no less than 205 µM, an MIC [2] of 9.26 µM (≈ 22.6 µg/mL) and an MIC [3] of 2.32 µM (≈ 5.66 µg/mL) were found for `C[C@H](NC(=O)[C@H](CCCCN)NC(=O)[C@H](Cc1ccccc1)NC(=O)[C@H](C)NC(=O)[C@H](CCCCN)NC(=O)[C@H](Cc1ccccc1)NC(=O)[C@H](C)NC(=O)[C@H](CCCCN)NC(=O)[C@H](Cc1ccccc1)NC(=O)[C@H](C)NC(=O)[C@H](CCCCN)NC(=O)[C@H](Cc1ccccc1)NC(=O)[C@H](C)NC(=O)[C@H](CCCCN)NC(=O)[C@H](Cc1ccccc1)NC(=O)[C@H](C)NC(=O)[C@H](CCCCN)NC(=O)[C@H](Cc1ccccc1)NC(=O)[C@H](C)NC(=O)[C@H](CCCCN)NC(=O)[C@@H](N)Cc1ccccc1)C(=O)O` [FKAFKAFKAFKAFKAFKAFKA] in this work. It also gave an MIC [4] of 145 µM (≈ 354 µg/mL) and an MIC [5] of 13.1 µM (≈ 32 µg/mL).

An MIC (Staphylococcus aureus) of 165 µM (≈ 200 µg/mL), an MIC (Escherichia coli) greater than 165 µM and an MIC (Pseudomonas aeruginosa) greater than 165 µM were found for `CC(C)C[C@H](NC(=O)[C@H](C)NC(=O)CNC(=O)[C@H](CC(C)C)NC(=O)[C@@H](N)Cc1ccccc1)C(=O)N[C@@H](Cc1ccccc1)C(=O)N[C@@H](CCCCN)C(=O)N[C@@H](CCCCN)C(=O)N[C@@H](C)C(=O)N[C@@H](CO)C(=O)N[C@@H](CCCCN)C(=O)O` [FLGALFKKASK] in this work. It also gave an MIC (Klebsiella pneumoniae) greater than 165 µM, an MIC (Bacillus subtilis) of no less than 82.7 µM and an MIC (Shigella dysenteriae) of no less than 165 µM. The MIC [6] was no less than 165 µM, the MIC (Proteus mirabilis) was no less than 165 µM and the MIC (Micrococcus luteus) was 10.3 µM (≈ 12.5 µg/mL). It also gave an MIC (Salmonella typhimurium) of no less than 165 µM.

An MIC (Staphylococcus aureus) greater than 207 µM, an MIC (Escherichia coli) greater than 207 µM and an MIC (Pseudomonas aeruginosa) greater than 207 µM were found for `CC(C)C[C@H](NC(=O)[C@H](C)NC(=O)CNC(=O)[C@H](CC(C)C)NC(=O)[C@@H](N)Cc1ccccc1)C(=O)N[C@@H](Cc1ccccc1)C(=O)N[C@@H](CCCCN)C(=O)N[C@H](C(=O)N[C@@H](C)C(=O)O)C(C)C` [FLGALFKVA] in this work. For the same compound, the MIC (Klebsiella pneumoniae) was greater than 207 µM, the MIC (Bacillus subtilis) was no less than 207 µM and the MIC (Shigella dysenteriae) was no less than 207 µM. It also gave an MIC [6] of no less than 207 µM, an MIC (Proteus mirabilis) of no less than 207 µM and an MIC (Micrococcus luteus) of no less than 207 µM. The MIC (Salmonella typhimurium) was no less than 207 µM.

An MIC (Staphylococcus aureus) of 82 µM (≈ 100 µg/mL), an MIC (Escherichia coli) of 164 µM (≈ 200 µg/mL) and an MIC (Pseudomonas aeruginosa) greater than 164 µM were found for `CC(C)C[C@H](NC(=O)[C@H](C)NC(=O)CNC(=O)[C@H](CC(C)C)NC(=O)[C@@H](N)Cc1ccccc1)C(=O)N[C@@H](Cc1c[nH]c2ccccc12)C(=O)N[C@@H](CCCCN)C(=O)N[C@H](C(=O)N[C@@H](C)C(=O)N[C@@H](CO)C(=O)N[C@@H](CCCCN)C(=O)O)C(C)C` [FLGALWKVASK] in this work. The MIC (Klebsiella pneumoniae) was 82 µM (≈ 100 µg/mL), the MIC (Bacillus subtilis) was no less than 164 µM and the MIC (Shigella dysenteriae) was no less than 164 µM. For the same compound, the MIC [6] was no less than 164 µM, the MIC (Proteus mirabilis) was no less than 164 µM and the MIC (Micrococcus luteus) was no less than 164 µM. The MIC (Salmonella typhimurium) was no less than 164 µM.

An MIC (Escherichia coli JW0013) of 1.98 µM (≈ 4.8 µg/mL) was found for `CC[C@H](C)[C@H](NC(=O)[C@H](CCCN=C(N)N)NC(=O)[C@H](CCCN=C(N)N)NC(=O)[C@@H]1CCCN1C(=O)[C@@H]1CCCN1C(=O)[C@H](CCCN=C(N)N)NC(=O)[C@@H]1CCCN1C(=O)[C@H](CCCN=C(N)N)NC(=O)[C@@H]1CCCN1C(=O)[C@H](CC(C)C)NC(=O)[C@H](Cc1ccc(O)cc1)NC(=O)[C@@H]1CCCN1C(=O)[C@@H]1CCCN1C(=O)[C@H](CCCCN)NC(=O)[C@H](CC(=O)O)NC(=O)[C@@H](N)CCCCN)C(=O)N[C@@H](Cc1ccc(O)cc1)C(=O)N[C@@H](CC(N)=O)C(=O)N[C@@H](CCCN=C(N)N)C(N)=O` [KDKPPYLPRPRPPRRIYNR] in this work.

An MIC [7] of 0.0414 µM (≈ 0.0999 µg/mL), an MIC [8] of 0.103 µM (≈ 0.25 µg/mL) and an MIC [9] of 4.14 µM (≈ 10 µg/mL) were found for `CC(C)C[C@H](NC(=O)[C@H](C)NC(=O)[C@H](CC(C)C)NC(=O)[C@H](CCCN=C(N)N)NC(=O)[C@H](CCCN=C(N)N)NC(=O)[C@@H](N)CCCCN)C(=O)N[C@@H](Cc1ccccc1)C(=O)N[C@@H](CCCN=C(N)N)C(=O)N[C@@H](C)C(=O)N[C@@H](Cc1ccccc1)C(=O)N[C@@H](CCCN=C(N)N)C(=O)N[C@@H](CC(C)C)C(=O)N[C@@H](C)C(=O)N[C@@H](CC(C)C)C(=O)N[C@@H](CCCCN)C(=O)N[C@@H](CO)C(=O)N[C@H](C(=O)N[C@@H](CC(C)C)C(=O)N[C@@H](CCCCN)C(=O)N[C@@H](CCCCN)C(N)=O)C(C)C` [KRRLALFRAFRLALKSVLKK] in this work. The MIC [10] was 0.0414 µM (≈ 0.0999 µg/mL), the MIC [11] was 0.414 µM (≈ 1 µg/mL) and the MIC [12] was 4.14 µM (≈ 10 µg/mL).

An MIC [7] of 0.293 µM (≈ 0.5 µg/mL), an MIC [8] of 0.0586 µM (≈ 0.1 µg/mL) and an MIC [9] of 0.0586 µM (≈ 0.1 µg/mL) were found for `NCCCC[C@H](NC(=O)[C@H](Cc1ccccc1)NC(=O)[C@H](Cc1ccccc1)NC(=O)[C@H](CCCCN)NC(=O)[C@H](Cc1ccccc1)NC(=O)[C@H](CCCCN)NC(=O)[C@H](CCCCN)NC(=O)[C@H](CCCCN)NC(=O)[C@@H](N)CCCN=C(N)N)C(=O)N[C@@H](CCCN=C(N)N)C(=O)N[C@@H](Cc1ccccc1)C(=O)N[C@@H](Cc1ccccc1)C(N)=O` [RKKKFKFFKRFF] in this work. The MIC [10] was 0.146 µM (≈ 0.25 µg/mL), the MIC [11] was 1.46 µM (≈ 2.5 µg/mL) and the MIC [12] was 5.86 µM (≈ 9.99 µg/mL).

An MIC (Escherichia coli JW0013) of 1.99 µM (≈ 4.8 µg/mL) was found for `CC[C@H](C)[C@H](NC(=O)[C@H](CCCN=C(N)N)NC(=O)[C@H](CCCN=C(N)N)NC(=O)[C@@H]1CCCN1C(=O)[C@@H]1CCCN1C(=O)[C@H](CCCN=C(N)N)NC(=O)[C@@H]1CCCN1C(=O)[C@H](CCCN=C(N)N)NC(=O)[C@@H]1CCCN1C(=O)[C@H](CC(C)C)NC(=O)[C@H](Cc1ccc(O)cc1)NC(=O)[C@H](CC(N)=O)NC(=O)[C@@H]1CCCN1C(=O)[C@H](CCCCN)NC(=O)[C@H](CC(=O)O)NC(=O)[C@@H](N)C(C)C)C(=O)N[C@@H](Cc1ccc(O)cc1)C(=O)N[C@@H](CC(N)=O)C(=O)N[C@@H](CCCN=C(N)N)C(N)=O` [VDKPNYLPRPRPPRRIYNR] in this work.

An MIC (Escherichia coli JW0013) of 1.28 µM (≈ 3.1 µg/mL) was found for `CC[C@H](C)[C@H](NC(=O)[C@H](CCCN=C(N)N)NC(=O)[C@H](CCCN=C(N)N)NC(=O)[C@@H]1CCCN1C(=O)[C@@H]1CCCN1C(=O)[C@H](CCCN=C(N)N)NC(=O)[C@@H]1CCCN1C(=O)[C@H](CCCN=C(N)N)NC(=O)[C@@H]1CCCN1C(=O)[C@H](CC(C)C)NC(=O)[C@H](Cc1ccc(O)cc1)NC(=O)[C@@H]1CCCN1C(=O)[C@H](CCC(N)=O)NC(=O)[C@H](CCCCN)NC(=O)[C@H](CC(=O)O)NC(=O)[C@@H](N)C(C)C)C(=O)N[C@@H](Cc1ccc(O)cc1)C(=O)N[C@@H](CC(N)=O)C(=O)N[C@@H](CCCN=C(N)N)C(N)=O` [VDKQPYLPRPRPPRRIYNR] in this work.

An MIC (Escherichia coli JW0013) of 0.519 µM (≈ 1.3 µg/mL) was found for `CC[C@H](C)[C@H](NC(=O)[C@H](CCCN=C(N)N)NC(=O)[C@H](CCCN=C(N)N)NC(=O)[C@@H]1CCCN1C(=O)[C@@H]1CCCN1C(=O)[C@H](CCCN=C(N)N)NC(=O)[C@@H]1CCCN1C(=O)[C@H](CCCN=C(N)N)NC(=O)[C@@H]1CCCN1C(=O)[C@H](CCCCN)NC(=O)[C@H](Cc1ccc(O)cc1)NC(=O)[C@H](Cc1cnc[nH]1)NC(=O)[C@H](CCCN=C(N)N)NC(=O)[C@H](CCCCN)NC(=O)[C@H](CC(=O)O)NC(=O)[C@@H](N)C(C)C)C(=O)N[C@@H](Cc1ccc(O)cc1)C(=O)N[C@@H](CC(N)=O)C(=O)N[C@@H](CCCN=C(N)N)C(N)=O` [VDKRHYKPRPRPPRRIYNR] in this work.

An MIC (Escherichia coli JW0013) of 0.683 µM (≈ 1.7 µg/mL) was found for `CC[C@H](C)[C@H](NC(=O)[C@H](CCCN=C(N)N)NC(=O)[C@H](CCCN=C(N)N)NC(=O)[C@@H]1CCCN1C(=O)[C@@H]1CCCN1C(=O)[C@H](CCCN=C(N)N)NC(=O)[C@@H]1CCCN1C(=O)[C@H](CCCN=C(N)N)NC(=O)[C@@H]1CCCN1C(=O)[C@H](CC(C)C)NC(=O)[C@H](Cc1ccc(O)cc1)NC(=O)[C@H](Cc1cnc[nH]1)NC(=O)[C@H](CCCN=C(N)N)NC(=O)[C@H](CCCCN)NC(=O)[C@H](CC(=O)O)NC(=O)[C@@H](N)C(C)C)C(=O)N[C@@H](Cc1ccc(O)cc1)C(=O)N[C@@H](CC(N)=O)C(=O)N[C@@H](CCCN=C(N)N)C(N)=O` [VDKRHYLPRPRPPRRIYNR] in this work.

An MIC (Escherichia coli BL21) of no less than 128 µM and an MIC [13] of 32 µM (≈ 69.4 µg/mL) were found for `CC[C@H](C)[C@H](NC(=O)[C@H](C)NC(=O)[C@H](Cc1ccccc1)NC(=O)[C@H](CCCCN)NC(=O)[C@@H](N)C(C)C)C(=O)N[C@@H](CCCCN)C(=O)N[C@@H](CCCCN)C(=O)N[C@H](C(=O)NCC(=O)N[C@@H](CCCCN)C(=O)N[C@@H](CCCCN)C(=O)N[C@@H](C)C(=O)N[C@@H](C)C(=O)N[C@@H](CCCCN)C(=O)N[C@@H](CCCCN)C(=O)N[C@H](C(=O)N[C@H](C(=O)N[C@H](C(=O)N[C@@H](CCCCN)C(=O)N[C@@H](C)C(=O)O)C(C)C)[C@@H](C)CC)C(C)C)[C@@H](C)CC` [VKFAIKKIGKKAAKKVIVKA] in this work.
